The results in this text go back to article PMC5177629, “Selective Estrogen Receptor Modulators: Cannabinoid Receptor Inverse Agonists with Differential CB1 and CB2 Selectivity” (Frontiers in Pharmacology, 2016).

In test [1] the target is T1, human cannabinoid type-2 receptors (hCB2) (Homo sapiens, UniProt P34972).
T1 construct: expressed in transfected cells; host or cells: CHO cells (CHO-hCB2), membranes or intact cells
Briefly: Adenylyl cyclase assay (forskolin-stimulated cAMP), intact CHO-hCB2 cells. The conditions noted are these: for Emax: elevation of cAMP, read-out: EMAX, Intracellular [3H]cAMP; for EC50: increase of cAMP, 10 μM forskolin, read-out: EC50, Intracellular [3H]cAMP. Format: cell-based. How it is done:
(§1) Briefly, cells cultured between passages 4 and 15 were seeded into 24-well plates at a concentration of 6.5 million cells per plate and incubated overnight in a humidified incubator maintained at 37°C and 5% CO2. Growth media was removed the next day and replaced with media containing […] [^3H]adenine, 0.9g/L NaCl, and 0.5 mM isobutyl-methyl-xanthine (IBMX) for 2–3 h. Radioactive media was then removed and each well treated with 0.5 ml of varying concentrations of SERM compounds in a Krebs-Ringer-HEPES solution (10 mM HEPES, 110 mM NaCl, 25 mM Glucose, 55 mM Sucrose, 5 mM KCl, 1 mM MgCl2, 1.8 mM CaCl2, pH 7.4) containing 0.5 mM IBMX and 10 μM forskolin. Plates were then floated in a 37°C water bath for 15 min before reactions were terminated by addition of 50 μL of 2.2 N HCl to each well.
(§2) Statistical analyses were conducted by utilizing GraphPad Prism v6.0g (GraphPad Software, Inc.; San Diego, CA, USA). IC50 values from competition receptor binding curves were derived by non-linear regression. […] Non-linear regression analysis of concentration-effect curves was also used to determine potency (ED50 or IC50) and efficacy (Emax or Imax) for modulation of GTPγS and adenylyl cyclase activity, respectively. All IC50, EC50, Ki, and Kb values were converted to pEC50, pIC50, pKi, and pKb values in order to permit use of parametric statistical analyses. For all experiments comparing three or more values, an one-way ANOVA was employed, followed by Dunnett’s or Tukey’s post hoc tests. For comparisons of two values, an unpaired t-test was utilized. To determine significant radioligand displacement or modulation of G-protein activity compared to basal levels, a one-sample t-test was employed.
To provide a second measure of intrinsic activity, the ability of SERMs to modulate intracellular levels of cAMP in intact cells was examined (Figure 6). CBRs couple to Gi/Go-proteins, and thus cannabinoid agonists inhibit activity of the downstream intracellular effector adenylyl cyclase, reducing intracellular cAMP levels.

In test [2] the target is T1, human cannabinoid type-2 receptors (hCB2). Kind of test: [35S]GTPγS binding, CHO-hCB2 membranes. Format: biochemical. The settings on record: for IMAX, GTPγS Binding (% Basal) CHO-hCB2: maximal reduction of basal G-protein activity. How it is done:
(§3) In short, pellets were thawed on ice, combined in a 40 ml glass Dounce homogenizer and homogenized in 20 ml of cold buffer (50 mM HEPES at pH 7.4, 3 mM MgCl2, and 1 mM EGTA) using 10 strokes. Homogenates were then centrifuged at 40,000 × g for 10 min at 4°C. After discarding the supernatant, pellets were homogenized and centrifuged twice more. Final pellets were re-suspended in ice-cold 50 mM HEPES, pH 7.4, aliquoted and stored at -80°C for future use. Protein concentration was determined the same day, prior to freezing, using BCA^TM Protein Assay (Thermo Fisher Scientific, Waltham, MA, USA).
(§4) Non-specific binding was defined by radioactivity remaining in the presence of 10 μM of non-radioactive GTPγS. All reactions were incubated for 30 min at 30°C, terminated by filtration through Whatman GF/B glass fiber filters (Brandel, Inc.) and followed by four 4 ml washes of ice cold filtration buffer (50 mM HEPES, pH 7.4) containing 0.1% bovine serum albumin. Filter punches of individual samples were placed in scintillation vials containing 4 mls of ScintiverseTM BD cocktail scintillation fluid (Fisher Scientific, Pittsburg, PA, USA). Final counts were determined using liquid scintillation spectrophotometry (Tri Carb 2100 TR Liquid Scintillation Analyzer, Packard Instrument Company, Meriden, CT, USA) after overnight incubation.
as §2
(§5) CBRs are coupled to Gi/Go type G-proteins. Therefore, binding of agonists to CBRs leads to G-protein activation, antagonists produce no effect, and inverse agonists reduce basal G-protein activity produced by constitutively active receptors. SERMs were screened by examining the ability of a single receptor saturating concentration (10 μM) to modulate G-protein activity in membranes prepared from CHO-hCB1 and CHO-hCB2 cells. G-protein activation was quantified using employing [^35S]GTPγS, a non-hydrolyzable analog of GTP, that irreversibly binds to the G-proteins when activated.

Test [3] concerns the target T2, human cannabinoid type-1 receptors (hCB1) (Homo sapiens, UniProt P21554).
T2 construct: host or cells: CHO cells (CHO-hCB1), membranes or intact cells
Briefly: [35S]GTPγS binding, CHO-hCB1 membranes. Format: biochemical. The settings on record: for IMAX, GTPγS Binding (% Basal) CHO-hCB1: maximal reduction of basal G-protein activity. How it is done:
as §3, §4, §2, §5
Background: GTPγS is a poorly hydrolysed GTP analogue; its binding reports G protein activation.

Test [4] concerns the target T2, human cannabinoid type-1 receptors (hCB1). Briefly: Competition receptor binding with [3H]CP-55,940, CHO-hCB1 membranes. How it is done:
as §3
The final volume of each sample was 1 ml, containing 50 mM Tris-HCl buffer (pH 7.4), 0.05% bovine serum albumin, 5 mM MgCl2, increasing concentrations of non-radioactive competing SERM ligands, and either 100 μg of CHO-hCB1 or 50 μg of CHO-hCB2 membrane homogenates. […] Each sample condition was performed in triplicate and allowed to reach equilibrium at room temperature for 90 min. Reactions were terminated by rapid vacuum filtration through Whatman GF/B glass fiber filters (Brandel, Inc.), followed by four 4 ml washes of ice-cold filtration buffer (50 mM Tris at pH 7.4 and 0.05% BSA). Filter punches of individual samples were placed in scintillation vials containing 4 mls of ScintiverseTM BD cocktail scintillation fluid (Fisher Scientific, Pittsburg, PA, USA). Final counts were determined using liquid scintillation spectrophotometry (Tri Carb 2100 TR Liquid Scintillation Analyzer, Packard Instrument Company, Meriden, CT, USA) after overnight incubation.
as §2
For initial comparison of potential SERM binding to CBRs, 14 commercially available compounds from 5 structurally distinct classes (Figure 1) were subjected to a radioligand binding screen (Figure 2).

Test [5] has the same target. Kind of test: Antagonism of CP-55,940 inhibition of adenylyl cyclase, intact CHO-hCB1 cells. The conditions noted are these: for IMAX of CP-55,940 after pre-incubation with the drug: CHO-hCB1 cells, pre-incubation 30 min: OSP, NAF, BAZ 10 μM, RAL 2 μM, AM-281 1 μM. Format: cell-based. How it is done:
as §1
Reactions were then terminated by adding 50 μL of 2.2 N HCl to each well. [^3H]cAMP was isolated using alumina column chromatography and radioactivity quantified following addition of 10 mls of scintiverseTM BD cocktail scintillation fluid (Fisher Scientific, Pittsburg, PA, USA) by liquid scintillation spectrophotometry (Tri Carb 2100 TR Liquid Scintillation Analyzer, Packard Instrument Company, Meriden, CT, USA).
as §2
IC50 and Kb values were converted to pIC50 and pKb values (pIC50 = -Log[IC50] or pKb = -Log[Kb], respectively) to allow use of parametric statistics for comparison.

Test [6] has as its target T3, human mu opioid receptors (CHO-hMOR cells) (Homo sapiens, UniProt P35372).
T3 construct: expressed in transfected cells; host or cells: CHO cells (CHO-hMOR), membranes or intact cells
Briefly: Adenylyl cyclase assay, CHO-hMOR cells (control not expressing hCB2Rs). Format: cell-based. The settings on record: 10 μM.

Where [7] appears, read: reduction of basal G-protein activity, CHO-hCB2 membranes, read-out: IC50, GTPγS Binding CHO-hCB2.

Where two headings read alike, the source gives them in different places. Marks after values point to notes of the source that are not given here.

Broadly, the Emax is the maximal effect, on the per cent scale that the assay sets. In general, EC50 refers to the concentration needed to bring the measured effect to its halfway point. For orientation: Ki means the equilibrium dissociation constant of an inhibitor or competing ligand from its target. Lower therefore signals higher affinity. What is called Kb is the affinity of an antagonist, worked out from how it opposes an agonist.

T1 sequence (P34972 whole entry): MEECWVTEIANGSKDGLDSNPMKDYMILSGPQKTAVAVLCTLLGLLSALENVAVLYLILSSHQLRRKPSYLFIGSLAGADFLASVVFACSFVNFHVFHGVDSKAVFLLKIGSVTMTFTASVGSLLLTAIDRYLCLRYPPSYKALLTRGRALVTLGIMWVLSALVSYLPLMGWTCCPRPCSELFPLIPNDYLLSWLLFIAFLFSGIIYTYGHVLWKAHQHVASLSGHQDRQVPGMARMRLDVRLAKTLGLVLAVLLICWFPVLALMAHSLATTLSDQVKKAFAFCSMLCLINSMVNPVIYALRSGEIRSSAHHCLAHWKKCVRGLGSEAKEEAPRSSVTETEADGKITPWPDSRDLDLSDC
T2 sequence (P21554 whole entry): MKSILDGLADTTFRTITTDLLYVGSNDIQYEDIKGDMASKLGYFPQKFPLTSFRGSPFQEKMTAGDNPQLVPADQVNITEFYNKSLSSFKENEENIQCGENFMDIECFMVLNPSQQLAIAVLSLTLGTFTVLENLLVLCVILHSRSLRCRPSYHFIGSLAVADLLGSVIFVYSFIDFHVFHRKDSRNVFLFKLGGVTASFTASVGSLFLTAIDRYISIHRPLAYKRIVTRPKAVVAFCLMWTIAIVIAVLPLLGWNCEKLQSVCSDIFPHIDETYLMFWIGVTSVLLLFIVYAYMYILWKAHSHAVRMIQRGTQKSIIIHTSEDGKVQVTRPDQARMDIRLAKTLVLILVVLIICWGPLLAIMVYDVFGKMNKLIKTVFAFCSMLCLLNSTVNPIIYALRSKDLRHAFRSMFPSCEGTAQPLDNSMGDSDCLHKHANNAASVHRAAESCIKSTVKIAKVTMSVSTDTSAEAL
T3 sequence (P35372 whole entry): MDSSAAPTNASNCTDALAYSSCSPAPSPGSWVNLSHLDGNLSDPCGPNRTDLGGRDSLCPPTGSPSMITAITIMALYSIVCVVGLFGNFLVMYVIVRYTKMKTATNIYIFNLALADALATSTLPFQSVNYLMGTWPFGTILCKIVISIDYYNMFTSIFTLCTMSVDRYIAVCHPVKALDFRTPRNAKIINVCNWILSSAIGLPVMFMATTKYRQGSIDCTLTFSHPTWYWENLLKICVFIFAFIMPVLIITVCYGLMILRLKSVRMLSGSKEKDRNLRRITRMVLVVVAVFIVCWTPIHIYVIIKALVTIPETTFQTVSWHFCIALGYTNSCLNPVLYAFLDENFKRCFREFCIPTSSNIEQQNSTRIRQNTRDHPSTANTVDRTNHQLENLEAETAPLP

For `O=C(c1ccc(OCCN2CCCCC2)cc1)c1c(-c2ccc(O)cc2)sc2cc(O)ccc12` [RAL, raloxifene], in test [1], the Emax turned out to be 234 ± 21% and the EC50 was 873 nM. The “IMAX, GTPγS Binding (% Basal) CHO-hCB2” value in test [2] was 34.3 ± 2.2^b,∗∗ %. The IC50 in test [2] (setting [7]) is 87.1 nM.

Consider `COc1ccc2c(c1)CCC(c1ccccc1)=C2c1ccc(OCCN2CCCC2)cc1` [NAF, nafoxidine], for which, in test [3], the “IMAX, GTPγS Binding (% Basal) CHO-hCB1” value is reported as 31.7 ± 1.5^a %. Also, the IC50 is 524 nM in test [3] (reduction of basal G-protein activity, CHO-hCB1 membranes, read-out: IC50, GTPγS Binding CHO-hCB1) and 344 nM in test [2] (CHO-hCB2 membranes, mean ± SEM, read-out: pIC50, GTPγS Binding CHO-hCB2 (converted)). For the same molecule, the “IMAX, GTPγS Binding (% Basal) CHO-hCB2” value in test [2] is reported as 38.7 ± 1.2^a,b,∗∗ %. In addition, the Ki in test [4] (CHO-hCB1 membranes, Cheng-Prusoff from IC50) was 957 nM. The “Selectivity (CB1/CB2)” value in test [4] (ratio of Ki hCB1 / Ki hCB2) is 0.74. The “IMAX of CP-55,940 after pre-incubation with the drug” value in test [5] is on record as 38.3 ± 1.7%. The Kb in test [5] (read-out: Kb (antagonist dissociation constant), CHO-hCB1) was 1160 nM.

Take `OCCOc1ccc(/C(=C(/CCCl)c2ccccc2)c2ccccc2)cc1` [OSP, ospemifene]: in test [1], the Emax was found to be 279 ± 17% and the EC50 is 1440 nM. In test [3], the IC50 is 170 nM and the “IMAX, GTPγS Binding (% Basal) CHO-hCB1” value is recorded as 30.3 ± 2.0^a %. The “reduction of basal G-protein activity, hCB1Rs” value in test [3] (CHO-hCB1 membranes, 10 μM) was approximately 30%. In addition, the “reduction of G-protein activity, hCB2Rs” value in test [2] (CHO-hCB2 membranes, 10 μM) is given as approximately 30%. Besides, in test [2], the “IMAX, GTPγS Binding (% Basal) CHO-hCB2” value is reported as 39.7 ± 2.4^a,∗∗ %. Also, the IC50 in test [2] (setting [7]) was 558 nM. In test [4], this molecule came in with a Ki of 753 nM. The “displacement of [3H]CP-55,940 from hCB1Rs” value in test [4] (single 1 μM concentration, 0.2 nM [3H]CP-55,940, CHO-hCB1) is recorded as “approximately 50%”. For the same molecule, in test [5], the Kb is 173 nM and the “IMAX of CP-55,940 after pre-incubation with the drug” value was determined as 43.8 ± 2.7%.

On to `Cc1c(-c2ccc(O)cc2)n(Cc2ccc(OCCN3CCCCCC3)cc2)c2ccc(O)cc12` [BAZ, bazedoxifene], for which, in test [1], the Emax was found to be 352 ± 14% and the EC50 was found to be 1980 nM. Moreover, the “IMAX, GTPγS Binding (% Basal) CHO-hCB2” value in test [2] is 34.0 ± 1.0^b,∗ %. Further, the IC50 in test [2] (setting [7]) is 71.6 nM. In addition, the “effect on basal cAMP levels, CHO-hMOR cells” value in test [6] is listed as “only slightly altered”.
